{"source": "patent US20200222400A1", "about": "“METHODS FOR THE TREATMENT OF NEUROLOGICAL DISORDERS” (Yumanity Therapeutics, Inc., priority 2019, published 2020)", "key": {"[1]": {"test_system": "A53T α-synuclein transfected human iPSC-derived neurons", "experiment": "Neuron survival assay, A53T α-synuclein transfected human iPSC-derived neurons", "assay_type": "cell-based", "settings": "all tested concentrations, 3 μM to 0.3 μM, relative to DMSO", "description": "Transfected neuronal cultures were imaged at 12-24 h intervals for the indicated number of days by robotic microscopy. Fluorescence images were acquired with a Nikon Eclipse Ti microscope equipped with a motorized stage, 20× extra-long working distance (ELWD) objective, and an Andor Zyla cMOS camera. During image acquisition, microplates were enclosed in an on-stage environmental chamber controlling temperature, CO2, and humidity (Okolab). Images were processed and analyzed with custom-made scripts in R and ImageJ software. The lifetimes of individual neurons were determined by tracking fluorescently-labeled neurons in ImageJ. Neuronal death was determined to occur upon incidence of RFP signal loss or rupture of cell body. Cox proportional hazards analysis was used to generate cumulative hazard plots and determine the risk of neuron death. Log-rank test was used to determine statistical significance of survival curve divergence between neuron cohorts.\nA model of α-synuclein toxicity utilizing transient transfection into human iPSC-derived neurons was developed. […] This model was utilized to evaluate the role of SCD in α-synuclein-dependent neuronal toxicity. Human iPSC-derived neurons were transfected with a construct encoding A53T α-synuclein or an empty vector control. […]"}, "[2]": {"molecular_target": "T1, human SCD1 (Homo sapiens, UniProt O00767)", "T1 construct": "host or cells: S. cerevisiae ole1Δ strain (W303 pdr1Δ pdr3Δ background), pRS316 plasmid, TDH3 promoter", "T1 sequence (O00767 1-359)": "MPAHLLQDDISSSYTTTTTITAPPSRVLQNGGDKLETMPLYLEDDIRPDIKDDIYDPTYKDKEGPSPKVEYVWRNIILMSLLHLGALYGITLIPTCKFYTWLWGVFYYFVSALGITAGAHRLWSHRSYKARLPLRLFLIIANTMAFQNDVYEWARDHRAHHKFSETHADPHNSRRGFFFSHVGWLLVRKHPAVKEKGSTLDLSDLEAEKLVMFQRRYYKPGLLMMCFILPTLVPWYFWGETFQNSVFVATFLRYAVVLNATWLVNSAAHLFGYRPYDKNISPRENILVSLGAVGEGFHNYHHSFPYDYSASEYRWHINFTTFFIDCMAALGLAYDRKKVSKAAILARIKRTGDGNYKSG", "experiment": "Growth of humanized yeast expressing human SCD1 as sole desaturase", "assay_type": "cell-based, humanized yeastized yeastized yeastized yeast", "settings": "yeast growth", "description": "The coding sequence of yeast OLE1 was also cloned into this plasmid). These clones were then transformed into the ole1Δ strain and plated on CSM-Ura media (CSM lacking uracil) with 2% glucose (w/v) and independent colonies were isolated and amplified.\nAll compound profiling experiments were performed using the same basic protocol. Different genetic backgrounds (e.g., gene deletions) or conditions (e.g., addition of oleic and palmitoleic acid) were replaced as indicated below.\nCompound administration was performed in two separate steps. First, 15 μL of CSM-Galactose (induces expression of toxic protein) was dispensed into clear 384 well assay plates using a MULTIDROP™ Combi reagent dispenser. […] The cultures described above were then diluted to a 2× concentration (0.03 and 0.08 for alpha-synuclein and ApoE, final OD600 of 0.015 and 0.04) in CSM-Galactose. For wild-type and Ole1/SCD1/SCD5 plasmid-containing strains, the 2× cell density was 0.02.\nFor experiments using a plasmid-borne copy of Ole1, SCD1, or SCD5 (FIGS. 4B, 7, and 8), media lacking uracil (SX-Ura, where X is glucose, raffinose, or galactose), was used for all steps of the compound profiling protocol to ensure its maintenance throughout the assay.\nAfter yeast delivery, assay plates were incubated under humidified conditions at 30° C. for 24 to 40 h. ApoE4 rescue experiments were stopped at 24 h, aSyn experiments at 40 h, Ole1 at 24 h, and SCD1/SCD5 at 40 h. The growth of yeast was monitored by reading the OD600 of each well using a microplate reader (Perkin Elmer EnVision™)."}}}
{"smiles": "Cc1nnc(-c2ccc(N3CCC(Oc4cc(F)ccc4Cl)CC3)nn2)o1", "note": "[CAY10566]", "values": [{"measurement": "risk of neuron death", "setting": "[1]", "value": "significantly reduced"}, {"measurement": "half-maximal inhibitory concentration (IC50), SCD1 humanized strain", "setting": "[2]", "value": "low nanomolar"}]}
